The source of these data is patent publication US20250340563A1, “FUSED PYRIDAZINE DERIVATIVES AS NLRP3 INHIBITORS” (Takeda Pharmaceutical Company Limited, priority 2022, published 2025).

Broadly, the Papp A→B is the apparent permeability from the apical to the basolateral side of a cell layer. What is called IC50 is the point on the concentration scale where inhibition reaches its midpoint. Read a high IC50 as a need for much substance.

SMILES strings stand for the structures. Bounds are passed on as bounds.

The target in one series is T1, MDR1 (P-gp) (Homo sapiens, UniProt P08183).
T1 construct: expressed in transfected cells; host or cells: Madin-Darby Canine Kidney (MDCK) cells
Briefly: MDCK-MDR1 assay (apparent permeability and efflux ratio). As to conditions: dog; for efflux ratio at 60 min, 1 µM: pH 7.4, MDCK-MDR1, P-gp mediated efflux ratio, read-out: MDR1 ER; for Papp A→B at 60 min, 1 µM: MDCK-MDR1 monolayer, apical to basolateral, pH 7.4, 60 minutes. It is filed as in vitro ADME. Here is the method: Madine-Darby Canine Kidney (MDCK) cells transfected with Multidrug resistance protein 1 (MDR1) are maintained in accordance with the provider's instructions in Dulbecco's Modified Eagle media (DMEM, Fisher Scientific Cat #10569044). DMEM is supplemented with 10% heat inactivated fetal bovine serum (Gibco Cat #16000-044), Penicillin-Streptomycin (100 units/mL) (Gibco Cat #15140122) and an inducer of P-gp, colchicine (200 nM) (Sigma Cat #C9754). The cells are seeded onto the apical side of HTS-Transwell-96 Plates (0.4 μm pore size, Corning Cat #3381) at a density of 6.25×10^3 cells per well with 75 μL and 250 μL of DMEM media in apical and basolateral wells, respectively, and are incubated at 37° C./5% CO2. Fresh DMEM media is exchanged in the apical and basolateral compartments after 72 hours and cells are allowed to grow into a monolayer for 144 hours before beginning the experimental incubation. Incubations are performed in Hanks' Balanced Salt Solution (HBSS, Fisher Scientific Cat #14025134) at pH 7.4 with 1% Bovine Serum Albumin (Sigma, Cat #A9418) and 10 mM HEPES (Fisher Scientific, Cat #15630080). DMEM media is removed and cells are rinsed with warm (37° C.) HBSS. HBSS with test compound at 1p M substrate concentration (0.1% v/v DMSO) is added to either the apical or basolateral compartment (75 μL or 250 μL, respectively) and blank HBSS buffer is added to the compartment which lacks test compound in singlicate. The cells are incubated for 60 minutes at 37° C./5% CO2. At the end of the incubation period, 50 μL of sample is removed from each receiver compartment and diluted into 150 μL of acetonitrile (Fisher Scientific, Cat #A996SK4)+0.1% formic acid (Sigma, Cat #F0507). The samples are centrifuged at 2000 rcf for 10 minutes at 4° C., after which 100 μL of supernatant is transferred to a new microplate and diluted with 100 μL of HPLC grade water (Fisher Scientific, Cat #W64). Samples are analyzed using a triple quadrupole mass spectrometer API-5500QTrap (ABSciex, Serial No. AU23291006) along with associated autosampler and high performance liquid chromatography pump instrumentation optimized for the detection of test articles through a Kinetix 2.1×50 mm C18 100 Å column (Phenomenex, Cat #00B-4605-AN).
Apparent permeability (Papp) values and efflux ratio are calculated using the following equations: […]

The next series addresses NLRP3 inflammasome (Homo sapiens, UniProt Q96P20). The series can be described thus: IL-1β assay in IFN-γ-differentiated, LPS-primed, ATP-activated THP-1 cells (ELISA). It is filed as cell-based. To be noted: 50 ng/mL LPS priming, 2.5 mM ATP activation, 2 hours. A digest of the protocol: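 Supernatant IL-1β is quantified by ELISA after 2 h of 2.5 mM ATP stimulation at 37 °C, with IC50 taken from a four-parameter fit of % inhibition. Before this, THP-1 macrophages (25 ng/mL IFN-γ, 24 h) were LPS-primed (50 ng/mL, 24 h, no FBS) and exposed to serially diluted compound for 30 min.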
(In general: An ELISA detects its analyte on a solid surface through an enzyme-linked reagent.)

In the next series the test system is NF-κB pathway. The series can be described thus: TNF-α assay in IFN-γ-differentiated, LPS-stimulated THP-1 cells (ELISA). It is filed as cell-based. To be noted: Homo sapiens, 50 ng/mL LPS, 3 hours. A digest of the protocol:
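THP-1 cells differentiated with 25 ng/mL IFN-γ for 24 h, then preincubated 30 min at 37 °C with compound (1:3.16 serial dilutions) in serum-free medium. Stimulated with 50 ng/mL LPS for 3 h; supernatant assayed by human TNF-α ELISA. IC50 from four-parameter logistic fit of % inhibition.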

T1 sequence (P08183 whole entry, species assumed): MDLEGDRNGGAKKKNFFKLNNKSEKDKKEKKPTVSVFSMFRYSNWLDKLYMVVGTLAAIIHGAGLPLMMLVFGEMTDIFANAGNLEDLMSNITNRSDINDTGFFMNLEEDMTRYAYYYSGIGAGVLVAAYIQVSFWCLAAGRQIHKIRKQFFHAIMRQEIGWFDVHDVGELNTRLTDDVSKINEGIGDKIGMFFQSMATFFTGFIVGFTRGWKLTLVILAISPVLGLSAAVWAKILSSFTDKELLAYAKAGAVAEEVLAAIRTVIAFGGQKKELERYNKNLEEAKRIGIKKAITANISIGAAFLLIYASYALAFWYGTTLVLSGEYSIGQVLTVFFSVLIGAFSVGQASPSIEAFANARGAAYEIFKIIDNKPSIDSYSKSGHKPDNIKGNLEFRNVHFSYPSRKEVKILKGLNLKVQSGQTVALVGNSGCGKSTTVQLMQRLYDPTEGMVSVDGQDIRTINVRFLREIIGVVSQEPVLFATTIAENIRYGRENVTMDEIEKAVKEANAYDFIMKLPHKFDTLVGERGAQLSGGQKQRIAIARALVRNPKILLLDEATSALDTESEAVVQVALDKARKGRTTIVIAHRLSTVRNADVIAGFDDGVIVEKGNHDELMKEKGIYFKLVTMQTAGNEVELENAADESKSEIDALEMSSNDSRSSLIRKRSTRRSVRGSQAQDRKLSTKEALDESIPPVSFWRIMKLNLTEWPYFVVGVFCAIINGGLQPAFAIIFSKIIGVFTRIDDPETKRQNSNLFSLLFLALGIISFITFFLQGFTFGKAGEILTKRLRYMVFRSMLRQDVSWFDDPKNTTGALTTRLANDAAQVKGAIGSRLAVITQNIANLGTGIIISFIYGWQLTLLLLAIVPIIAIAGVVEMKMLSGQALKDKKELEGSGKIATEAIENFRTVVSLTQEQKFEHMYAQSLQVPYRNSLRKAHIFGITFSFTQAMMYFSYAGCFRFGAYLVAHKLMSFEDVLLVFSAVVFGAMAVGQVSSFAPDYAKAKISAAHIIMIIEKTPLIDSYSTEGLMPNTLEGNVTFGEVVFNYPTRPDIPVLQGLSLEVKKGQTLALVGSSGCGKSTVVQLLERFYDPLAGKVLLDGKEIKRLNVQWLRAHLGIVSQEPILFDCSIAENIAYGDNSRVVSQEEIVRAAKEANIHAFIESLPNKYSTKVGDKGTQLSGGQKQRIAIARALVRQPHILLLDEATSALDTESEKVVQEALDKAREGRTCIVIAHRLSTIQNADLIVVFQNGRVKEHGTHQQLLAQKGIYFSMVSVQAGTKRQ
Chain of NLRP3 inflammasome (Q96P20 whole entry): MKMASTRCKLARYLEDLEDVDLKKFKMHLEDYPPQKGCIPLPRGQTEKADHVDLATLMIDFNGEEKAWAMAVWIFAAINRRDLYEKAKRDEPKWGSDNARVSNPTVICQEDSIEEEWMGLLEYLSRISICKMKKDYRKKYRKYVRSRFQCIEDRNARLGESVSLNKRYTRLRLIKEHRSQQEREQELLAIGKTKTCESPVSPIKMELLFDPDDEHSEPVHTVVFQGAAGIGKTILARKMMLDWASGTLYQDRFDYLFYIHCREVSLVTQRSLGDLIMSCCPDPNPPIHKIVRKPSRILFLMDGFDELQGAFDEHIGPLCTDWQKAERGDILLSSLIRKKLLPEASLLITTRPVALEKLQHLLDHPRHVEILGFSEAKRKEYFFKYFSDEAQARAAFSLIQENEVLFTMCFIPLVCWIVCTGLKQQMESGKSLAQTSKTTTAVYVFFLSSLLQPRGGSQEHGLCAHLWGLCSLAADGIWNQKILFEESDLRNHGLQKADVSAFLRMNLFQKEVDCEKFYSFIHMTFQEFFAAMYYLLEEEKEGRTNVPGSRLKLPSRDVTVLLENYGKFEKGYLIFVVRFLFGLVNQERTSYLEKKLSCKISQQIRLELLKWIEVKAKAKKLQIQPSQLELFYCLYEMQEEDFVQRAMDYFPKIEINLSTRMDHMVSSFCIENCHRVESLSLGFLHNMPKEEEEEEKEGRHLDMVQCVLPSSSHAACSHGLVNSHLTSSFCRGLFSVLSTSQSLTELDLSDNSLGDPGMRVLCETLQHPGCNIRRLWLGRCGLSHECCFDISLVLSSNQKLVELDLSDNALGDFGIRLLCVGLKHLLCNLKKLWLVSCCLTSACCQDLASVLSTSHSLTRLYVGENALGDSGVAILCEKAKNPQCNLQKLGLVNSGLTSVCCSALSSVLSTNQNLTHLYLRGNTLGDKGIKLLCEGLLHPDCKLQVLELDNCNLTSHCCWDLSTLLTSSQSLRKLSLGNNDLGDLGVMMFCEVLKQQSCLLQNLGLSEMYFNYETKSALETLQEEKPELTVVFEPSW

Take `Cc1ccc(-c2nnc(N[C@@H]3CCCC[C@H]3O)c3c2COCC3)c(O)c1` [Example 230, 2-(1-(((1R,2R)-2-hydroxycyclohexyl)amino)-7,8-dihydro-5H-pyrano[3,4-d]pyridazin-4-yl)-5-methylphenol]: on MDR1 (P-gp), the efflux ratio at 60 min, 1 µM came out at 7 and the Papp A→B at 60 min, 1 µM is 1.3 ×10⁻⁶ cm/s. In addition, the IC50 at NLRP3 inflammasome was found to be 121 nM. The IC50 in the series with NF-κB pathway was greater than 10000 nM.
`CN1C[C@H](F)C[C@@H](Nc2nnc(-c3ccc(F)cc3O)c3c2COCC3)C1` [Example 219, 5-fluoro-2-(4-(((3R,5R)-5-fluoro-1-methylpiperidin-3-yl)amino)-7,8-dihydro-5H-pyrano[3,4-d]pyridazin-1-yl)phenol]: at MDR1 (P-gp), the efflux ratio at 60 min, 1 µM came out at 13 and the Papp A→B at 60 min, 1 µM was 4.7 ×10⁻⁶ cm/s. Further, the IC50 on NLRP3 inflammasome stood at 8 nM. Besides, the IC50 in the series on NF-κB pathway was greater than 30000 nM.
The corresponding values for `Cc1ccc(-c2nnc(N[C@@H]3C[C@@H](F)CN(C)C3)c3c2CCOC3)c(O)c1` [Example 220, 2-(4-(((3R,5R)-5-fluoro-1-methylpiperidin-3-yl)amino)-7,8-dihydro-5H-pyrano[3,4-d]pyridazin-1-yl)-5-methylphenol] are 9, 1.5 ×10⁻⁶ cm/s, 8 nM and greater than 30000 nM.
In the same order, the values of `CN1C[C@H](F)C[C@@H](Nc2nnc(-c3ccc(C(F)F)cc3O)c3c2COCC3)C1` [Example 239, 5-(difluoromethyl)-2-(4-(((3R,5R)-5-fluoro-1-methylpiperidin-3-yl)amino)-7,8-dihydro-5H-pyrano[3,4-d]pyridazin-1-yl)phenol] are 39, 1.2 ×10⁻⁶ cm/s, 11 nM and greater than 30000 nM.
In the same order, the values of `CN1C[C@H](F)C[C@@H](Nc2nnc(-c3ccc(C4CC4)cc3O)c3c2COCC3)C1` [Example 238, 5-cyclopropyl-2-(4-(((3R,5R)-5-fluoro-1-methylpiperidin-3-yl)amino)-7,8-dihydro-5H-pyrano[3,4-d]pyridazin-1-yl)phenol] are 41, 0.6 ×10⁻⁶ cm/s, 5 nM and greater than 30000 nM.
As for `CN1C[C@H](F)C[C@@H](Nc2nnc(-c3ccc(C(F)(F)F)cc3O)c3c2COCC3)C1` [Example 234, 2-(4-(((3R,5R)-5-fluoro-1-methylpiperidin-3-yl)amino)-7,8-dihydro-5H-pyrano[3,4-d]pyridazin-1-yl)-5-(trifluoromethyl)phenol], on MDR1 (P-gp), the efflux ratio at 60 min, 1 µM is 12 and the Papp A→B at 60 min, 1 µM came to 1.5 ×10⁻⁶ cm/s. The molecule further displayed an IC50 at NLRP3 inflammasome of 6 nM. Besides, in the series on NF-κB pathway, the IC50 is greater than 30000 nM.
The corresponding values for `CN1C[C@H](F)C[C@@H](Nc2nnc(-c3ccc(Cl)cc3O)c3c2COCC3)C1` [Example 212, 5-chloro-2-(4-(((3R,5R)-5-fluoro-1-methylpiperidin-3-yl)amino)-7,8-dihydro-5H-pyrano[3,4-d]pyridazin-1-yl)phenol] are 9, 2.1 ×10⁻⁶ cm/s, 2 nM and greater than 30000 nM.
For `CN1CCC[C@@H](Nc2nnc(-c3ccc(Cl)cc3O)c3c2COCC3)C1` [Example 225, (R)-5-chloro-2-(4-((1-methylpiperidin-3-yl)amino)-7,8-dihydro-5H-pyrano[3,4-d]pyridazin-1-yl)phenol], the efflux ratio at 60 min, 1 µM at MDR1 (P-gp) turned out to be 22. Also, at MDR1 (P-gp), the Papp A→B at 60 min, 1 µM was found to be 1.5 ×10⁻⁶ cm/s. Besides, the results for the IC50 against NLRP3 inflammasome and in the series on NF-κB pathway were 2 nM and greater than 30000 nM, respectively.
Turning to `Cc1ccc(-c2nnc(N[C@@H]3CCCC[C@H]3O)c3c2CCOC3)c(O)c1` [Example 229, 2-(4-(((1R,2R)-2-hydroxycyclohexyl)amino)-7,8-dihydro-5H-pyrano[3,4-d]pyridazin-1-yl)-5-methylphenol], at MDR1 (P-gp), the efflux ratio at 60 min, 1 µM amounted to 6 and the Papp A→B at 60 min, 1 µM worked out at 1 ×10⁻⁶ cm/s. Moreover, 36 nM corresponded to half-maximal inhibition against NLRP3 inflammasome (IC50). The molecule also displayed an IC50 in the series on NF-κB pathway greater than 10000 nM.
In the same order, the values of `CN1C[C@H](F)C[C@@H](Nc2nnc(-c3ccccc3O)c3c2COCC3)C1` [Example 213, 2-(4-(((3R,5R)-5-fluoro-1-methylpiperidin-3-yl)amino)-7,8-dihydro-5H-pyrano[3,4-d]pyridazin-1-yl)phenol] are 14, 3.1 ×10⁻⁶ cm/s, 28 nM and greater than 30000 nM.
In the same order, the values of `COCCN1CCC[C@@H](Nc2nnc(-c3ccc(C)cc3O)c3c2COCC3)C1` [Example 233, (R)-2-(4-((1-(2-methoxyethyl)piperidin-3-yl)amino)-7,8-dihydro-5H-pyrano[3,4-d]pyridazin-1-yl)-5-methylphenol] are 25, 2 ×10⁻⁶ cm/s, 155 nM and greater than 30000 nM.
The corresponding values for `Cc1ccc(-c2nnc(N[C@@H]3CCCN(C)C3)c3c2CCOC3)c(O)c1` [Example 218, (R)-5-methyl-2-(4-((1-methylpiperidin-3-yl)amino)-7,8-dihydro-5H-pyrano[3,4-d]pyridazin-1-yl)phenol] are 26, 1.2 ×10⁻⁶ cm/s, 2 nM and greater than 30000 nM.
As to `COc1ccc(-c2nnc(N[C@@H]3CCCN(C)C3)c3c2CCOC3)c(O)c1` [Example 221, (R)-5-methoxy-2-(4-((1-methylpiperidin-3-yl)amino)-7,8-dihydro-5H-pyrano[3,4-d]pyridazin-1-yl)phenol], at MDR1 (P-gp), the efflux ratio at 60 min, 1 µM worked out at 30 and the Papp A→B at 60 min, 1 µM came to 1 ×10⁻⁶ cm/s. This molecule also came in with an IC50 against NLRP3 inflammasome of 3 nM. For the same molecule, the IC50 in the series on NF-κB pathway was greater than 30000 nM.
In the same order, the values of `Cc1ccc(-c2nnc(N[C@@H]3C[C@@H](F)CN(C)C3)c3c2COCC3)c(O)c1` [Example 201, 2-(1-(((3R,5R)-5-fluoro-1-methylpiperidin-3-yl)amino)-7,8-dihydro-5H-pyrano[3,4-d]pyridazin-4-yl)-5-methylphenol] are 17, 1.7 ×10⁻⁶ cm/s, 10 nM and greater than 30000 nM.
In the case of `COc1ccc(-c2nnc(N[C@@H]3C[C@@H](F)CN(C)C3)c3c2CCOC3)c(O)c1` [Example 237, 2-(4-(((3R,5R)-5-fluoro-1-methylpiperidin-3-yl)amino)-7,8-dihydro-5H-pyrano[3,4-d]pyridazin-1-yl)-5-methoxyphenol], at MDR1 (P-gp), the efflux ratio at 60 min, 1 µM was determined as 10 and the Papp A→B at 60 min, 1 µM is 1.6 ×10⁻⁶ cm/s. This molecule also came in with an IC50 against NLRP3 inflammasome of 11 nM. In the series with NF-κB pathway, this molecule yielded an IC50 greater than 30000 nM.
In the same order, the values of `CN1C[C@H](F)C[C@@H](Nc2nnc(-c3ccc(OC(F)(F)F)cc3O)c3c2COCC3)C1` [Example 236, 2-(4-(((3R,5R)-5-fluoro-1-methylpiperidin-3-yl)amino)-7,8-dihydro-5H-pyrano[3,4-d]pyridazin-1-yl)-5-(trifluoromethoxy)phenol] are 10, 2.2 ×10⁻⁶ cm/s, 7 nM and greater than 30000 nM.
For the molecule `CN1CCC[C@@H](Nc2nnc(-c3ccccc3O)c3c2COCC3)C1` [Example 226, (R)-2-(4-((1-methylpiperidin-3-yl)amino)-7,8-dihydro-5H-pyrano[3,4-d]pyridazin-1-yl)phenol], at MDR1 (P-gp), the efflux ratio at 60 min, 1 µM was 21 and the Papp A→B at 60 min, 1 µM is 1.3 ×10⁻⁶ cm/s. The molecule also had an IC50 at NLRP3 inflammasome of 9 nM. The IC50 in the series on NF-κB pathway was greater than 30000 nM.
